In patent publication US20260060910A1, “COMPOSITION FOR ACTIVATING EXTERNAL BARRIER” (Yuki Gosei Kogyo Co., Ltd., priority 2024, published 2026):

Tested on: miRNA contained in exosomes secreted from C2C12 cells
Conditions: exosomes from β-alanine-treated C2C12 cells vs control; microarray; FIG. 4
Procedure: In this example, miRNAs in exosomes were analyzed by microarray.
The exosome solution purified in Example 2 was used for microarray analysis. The microarray experiment was outsourced to Kamakura Techno Science (Kanagawa, Japan). Based on the data obtained, samples with a ratio of 1.5 or more compared to the control and one of the signal values of two samples exceeding 100 were extracted as miRNAs with altered transcription levels.

NCCC(=O)O [β-alanine]
number of miRNAs decreased: 14
number of miRNAs increased: six
